Experimental data published in ChEMBL document CHEMBL5550109, “Synergistic therapeutics: Co-targeting histone deacetylases and ribonucleotide reductase for enhanced cancer treatment” (Eur J Med Chem, 2024).

What follows are compounds tested against T1, Ribonucleoside-diphosphate reductase subunit M2 (Homo sapiens, UniProt P31350) (assay: Inhibition of human recombinant RRM2). Settings: not given.
T1 sequence (P31350 whole entry): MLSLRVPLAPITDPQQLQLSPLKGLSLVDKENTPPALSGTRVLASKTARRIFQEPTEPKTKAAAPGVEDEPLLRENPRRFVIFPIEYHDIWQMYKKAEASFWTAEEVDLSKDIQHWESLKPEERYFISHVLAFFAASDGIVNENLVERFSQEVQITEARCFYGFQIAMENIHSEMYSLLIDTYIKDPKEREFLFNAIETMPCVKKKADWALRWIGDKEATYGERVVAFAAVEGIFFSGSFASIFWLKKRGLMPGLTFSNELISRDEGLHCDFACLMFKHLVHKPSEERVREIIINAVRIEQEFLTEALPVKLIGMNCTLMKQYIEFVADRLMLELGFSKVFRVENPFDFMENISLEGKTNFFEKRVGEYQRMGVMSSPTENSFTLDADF

Row | Structure (SMILES) | IC50
1 | NC(=O)NO [HYDROXYUREA] | 601 µM

The compounds below were run on HCT-116 (assay: Growth inhibition of human HCT-116 cells). Settings: pooled result: one value given for 3 cell lines, strains, targets or settings.
Type: functional

Row | Structure (SMILES) | GI50
2 | COc1ccc(/C=N/Nc2nc(C)c(C(=O)NO)s2)cc1 | 32.8 µM
3 | Cc1nc(N/N=C/c2ccccc2O)sc1C(=O)NO | 36.7 µM
4 | Cc1nc(N/N=C/c2ccccc2)sc1C(=O)NO | 23.9 µM
5 | Cc1nc(N/N=C/c2ccc([N+](=O)[O-])cc2)sc1C(=O)NO | 40.7 µM
6 | C/C(=N\Nc1nc(C)c(C(=O)NO)s1)c1ccc(Cl)cc1 | > 50 µM
7 | C/C(=N\Nc1nc(C)c(C(=O)NO)s1)c1ccccc1 | > 50 µM
8 | COc1cccc(/C=N/Nc2nc(C)c(C(=O)NO)s2)c1 | > 50 µM
9 | Cc1nc(N/N=C/c2ccc(N(C)C)cc2)sc1C(=O)NO | 20.8 µM
10 | Cc1nc(N/N=C/c2ccc(Cl)cc2)sc1C(=O)NO | 21.6 µM
